The compounds below were run on exon 10 of the human tau gene (assay: High-throughput small molecule screen with two-color fluorescent (GFP/RFP) splicing reporter in stable cell line). Conditions: not given.
Type: cell-based
Excerpt: Exon 10 of the human tau gene (SEQ ID NO:9; see also, GenBank Accession No. AF027494) containing short stretches (about 50-100 nucleotides) of each of the flanking introns (i.e., intronic sequences from introns 9 and 10; see, e.g., Wang et al., J. Neurochem., 88:1078-1090 (2004)) was cloned into the EcoRI and BamHI restriction sites of the reporter intron (SEQ ID NO:2), which interrupts the start codon of the GFP open reading frame. The clone was linearized using DraIII and transfected into adherent mammalian cells.
In particular, the background was calculated by measuring the fluorescence of each channel after excitation with shorter wavelengths than the optimal for the reporter proteins. This measurement was corrected using data from non-reporter cells before being subtracted from the reporter-expressing cells as background. The following formulas describe the background subtraction procedure: […]
The two-color fluorescent reporter constructs described above carrying exon 10 of the human tau gene were used in high-throughput small molecule screens of a library of enzyme inhibitors (FIG. 6A) and a library of FDA approved drugs (FIG. 6B). The stable cell line was plated at density of 5000 cells per well in 384-well plates. HEK 293 cells to be used as the non-fluorescent control for background subtraction were plated in separate plates at the same density. Each library was applied to the plates and the cells were incubated for 16 hours. The media was removed and the cells were lysed in RIPA buffer (1% Nonidet P-40, 1% sodium deoxycholate, 0.1% SDS, 150 mM NaCl, 10 mM sodium phosphate (pH 7.2), 2 mM EDTA, 50 mM NaF, 5 mM beta-glycerophosphate). The fluorescence intensities were measured using an Analyst AD plate reader. The background was subtracted as described above and the logarithm at base 2 was calculated for the ratio of RFP to GFP fluorescence intensities (log-ratio) and the product of the GFP and RFP fluorescence intensities (log-expression) for each data point. The log-ratios were normalized by Lowess regression using the log-expression as an independent variable.
`N#CC(=C(/N)Sc1ccccc1N)/C(C#N)=C(\N)Sc1ccccc1N` [Compound U-0126] gave a Log-ratio of 0.44. Compound `CN(C)C(=O)C(CCN1CCC(O)(c2ccc(Cl)cc2)CC1)(c1ccccc1)c1ccccc1` [LOPERAMIDE] has a Log-ratio of 0.72.

Same assay, conditions: log2 of RFP/GFP fluorescence, background subtracted, Lowess normalized; enzyme inhibitor library; 16 hours incubation; DMSO control −0.21
With `NCCNS(=O)(=O)c1cccc2cnccc12` [Compound H-9] the Log-ratio was 0.61. Compound `O=c1[nH]c2ccccc2n1C1CCN(CCCC(c2ccc(F)cc2)c2ccc(F)cc2)CC1` [PIMOZIDE] has a Log-ratio of 0.69. Work on `C=C(C)[C@H]1O[C@H]2CC[C@@]3(C)[C@@](O)(CC[C@H]4[C@@H]5OC(C)(C)[C@H]6C[C@@H]7C(=C)Cc8c(Cl)cc9[nH]c(c5c9c8[C@@]76O)[C@@]43C)[C@@]23O[C@H]3[C@H]1O` [PENITREM A] yielded a Log-ratio of 0.56. `COC[C@H]1OC(=O)c2coc3c2[C@@]1(C)C1=C(C3=O)[C@@H]2CCC(=O)[C@@]2(C)C[C@H]1OC(C)=O` [WORTMANNIN] gave a Log-ratio of 1.37. `O=c1cc(N2CCOCC2)oc2c(-c3ccccc3)cccc12` [LY 294002] showed a Log-ratio of 0.85. `Oc1ccc(-c2nc(-c3ccncc3)c(-c3ccc(F)cc3)[nH]2)cc1` [SB-202190] was tested, and the Log-ratio was 0.46. Compound `CCCCC/C=C\C/C=C\C/C=C\C/C=C\CCCC(=O)N[C@@H](C)C(=O)O` [Arachidonoyl alanine] has a Log-ratio of 0.38. `O=S(=O)(c1cccc2c(Cl)cccc12)N1CCCNCC1` [ML-9] was tested, and the Log-ratio was 0.52. With `Cc1cc(O)c2c(=O)c3c(O)cc(O)c4c5c(O)cc(O)c6c(=O)c7c(O)cc(C)c8c1c2c(c34)c(c78)c65` [HYPERICIN] the Log-ratio was 1.14. Work on `O=S(=O)(c1cccc2c(I)cccc12)N1CCCNCC1` [ML-7] yielded a Log-ratio of 0.72. For `CC(C)COCC(CN(Cc1ccccc1)c1ccccc1)N1CCCC1` (stereo not drawn) [BEPRIDIL], the Log-ratio was 0.74. `CC(C)(C)c1cc(C=C(C#N)C#N)cc(C(C)(C)C)c1O` [TYRPHOSTIN 9] gave a Log-ratio of 1.69. With `Nc1ncnc2c1c(I)cn2[C@@H]1O[C@H](CO)[C@@H](O)[C@H]1O` [5-IODOTUBERCIDIN] the Log-ratio was −1.03. `C=C[C@H]1C[N@@]2CC[C@H]1C[C@H]2[C@H](O)c1ccnc2ccc(OC)cc12` [QUININE] gave a Log-ratio of 0.43. Compound `COc1ccc(S(=O)(=O)N(CCO)c2ccccc2CN(C)C/C=C/c2ccc(Cl)cc2)cc1` [KN-93] has a Log-ratio of 0.75. In the case of `CCCCc1oc2ccccc2c1C(=O)c1cc(I)c(OCCN(CC)CC)c(I)c1` [AMIODARONE], the Log-ratio is reported as 0.63. For `CCCCCCCCCCCCCCCC(=O)OC(CC(=O)O)C[N+](C)(C)C.[Cl-]` (racemic) [PALMITOYL-DL-CARNITINE CI], the Log-ratio was 0.61. `N/C(=N\C(=O)c1nc(Cl)c(N)nc1N)NCc1ccc(Cl)c(Cl)c1` [DICHLOROBENZAMIL] was tested, and the Log-ratio was 1.75. `CC(=O)c1c(O)c(C)c(O)c(Cc2c(O)c3c(c(C(=O)/C=C/c4ccccc4)c2O)OC(C)(C)C=C3)c1O` [ROTTLERIN] gave a Log-ratio of 1.27. Work on `CC1(C(=O)O)C2CCC(O2)C1(C)C(=O)O` (stereo not drawn) [CANTHARIDIC ACID] yielded a Log-ratio of −1.72. Compound `CCCCC/C=C\C/C=C\C/C=C\CCCCCCC(=O)NCC(=O)O` [Dihomo-gamma-linolenoyl glycine] has a Log-ratio of 0.49. In the case of `CN(CCc1ccc(Cl)c(Cl)c1)CC(O)COc1ccc(NS(C)(=O)=O)cc1` (stereo not drawn) [AM 92016], the Log-ratio is reported as 0.44. For `CC(C)(C)c1cc(/C=C(\C#N)C(N)=S)cc(C(C)(C)C)c1O` [AG-879], the Log-ratio was 1.59. `N#C/C(=C\c1ccc(O)c(O)c1)C(N)=S` [TYRPHOSTIN 47] showed a Log-ratio of 0.48. `COC(=O)C1=C(C)NC(C)=C(C(=O)OCCN(C)Cc2ccccc2)C1c1cccc([N+](=O)[O-])c1` (stereo not drawn) [NICARDIPINE] was tested, and the Log-ratio was 0.68.

— patent US8580511B2, “Two-color fluorescent reporter for alternative pre-mRNA splicing” (The Regents of the University of California, priority 2006, dated 2013)
